Reference: patent US11091479B2, “Triazolopyridin-3-ones or their salts and pharmaceutical compositions comprising the same” (YUHAN CORPORATION, priority 2018, dated 2021)
Where a name gives a salt, the structure may show the parent alone.

Key:
Format in all cases: biochemical
[1] = target: T1, recombinant human DAO (diamine oxidase) (Homo sapiens, UniProt P19801); assay: Activity on recombinant human DAO, method similar to VAP-1 assay, 1 mM putrescine substrate; conditions: read-out: Inhibitory Activity (IC50, nM) DAO
T1 construct: purchased R&D systems
T1 sequence (P19801 20-751): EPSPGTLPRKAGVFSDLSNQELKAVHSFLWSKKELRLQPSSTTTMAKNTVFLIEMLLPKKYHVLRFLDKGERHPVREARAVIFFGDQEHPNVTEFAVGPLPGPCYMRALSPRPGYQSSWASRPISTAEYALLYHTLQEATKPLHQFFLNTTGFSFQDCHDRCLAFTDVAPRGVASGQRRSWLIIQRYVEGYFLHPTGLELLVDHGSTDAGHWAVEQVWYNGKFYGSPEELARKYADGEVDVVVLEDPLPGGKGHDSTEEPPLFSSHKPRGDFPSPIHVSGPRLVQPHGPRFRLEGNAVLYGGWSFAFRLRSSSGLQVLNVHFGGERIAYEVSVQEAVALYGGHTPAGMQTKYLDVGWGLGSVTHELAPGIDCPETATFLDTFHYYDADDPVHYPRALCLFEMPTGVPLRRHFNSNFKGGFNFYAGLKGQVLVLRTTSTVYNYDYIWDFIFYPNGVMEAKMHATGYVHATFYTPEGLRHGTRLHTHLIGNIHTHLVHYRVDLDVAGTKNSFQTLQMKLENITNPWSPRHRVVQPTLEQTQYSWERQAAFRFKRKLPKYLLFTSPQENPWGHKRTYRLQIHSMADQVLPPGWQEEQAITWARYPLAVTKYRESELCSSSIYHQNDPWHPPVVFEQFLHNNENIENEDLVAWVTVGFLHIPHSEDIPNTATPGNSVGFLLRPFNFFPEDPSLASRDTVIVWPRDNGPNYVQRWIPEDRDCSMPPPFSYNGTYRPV
How it was run: (§1)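 Amplex Red/HRP-coupled H2O2 fluorescence assay run as for VAP-1: enzyme in 50 mM sodium phosphate pH 7.4 preincubated with compound 30 min at 37 °C, then substrate (putrescine for DAO, benzylamine for MAO-B, tyramine for MAO-A) added with 200 uM Amplex Red, 1 U/mL HRP. Signal rate over 1-2 h; IC50 from 4-parameter logistic fit.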

[2] = target: T2, recombinant human MAO-B (monoamine oxidase-B) (Homo sapiens, UniProt P27338); assay: Activity on recombinant human MAO-B, method similar to VAP-1 assay, 1 mM benzylamine substrate; conditions: read-out: Inhibitory Activity (IC50, nM) MAO-B
T2 construct: purchased Sigma-Aldrich
T2 sequence (P27338 1-520): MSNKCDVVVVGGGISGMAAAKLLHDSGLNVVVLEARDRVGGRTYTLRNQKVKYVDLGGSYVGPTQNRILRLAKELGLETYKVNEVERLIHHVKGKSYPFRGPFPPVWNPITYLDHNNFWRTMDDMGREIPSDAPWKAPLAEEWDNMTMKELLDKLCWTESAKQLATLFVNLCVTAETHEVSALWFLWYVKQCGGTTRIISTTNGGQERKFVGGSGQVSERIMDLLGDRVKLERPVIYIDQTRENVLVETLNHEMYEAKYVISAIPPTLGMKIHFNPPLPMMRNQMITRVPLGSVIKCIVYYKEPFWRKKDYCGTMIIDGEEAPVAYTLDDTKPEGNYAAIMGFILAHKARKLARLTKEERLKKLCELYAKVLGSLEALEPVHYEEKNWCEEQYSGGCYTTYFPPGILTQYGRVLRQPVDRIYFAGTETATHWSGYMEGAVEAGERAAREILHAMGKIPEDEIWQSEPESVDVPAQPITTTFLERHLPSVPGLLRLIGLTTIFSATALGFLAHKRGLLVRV
How it was run: as §1

[3] = target: T3, recombinant human MAO-A (monoamine oxidase-A) (Homo sapiens, UniProt P21397); assay: Activity on recombinant human MAO-A, method similar to VAP-1 assay, 0.5 mM tyramine substrate; conditions: read-out: Inhibitory Activity (IC50, nM) MAO-A
T3 construct: purchased Sigma-Aldrich
T3 sequence (P21397 1-527): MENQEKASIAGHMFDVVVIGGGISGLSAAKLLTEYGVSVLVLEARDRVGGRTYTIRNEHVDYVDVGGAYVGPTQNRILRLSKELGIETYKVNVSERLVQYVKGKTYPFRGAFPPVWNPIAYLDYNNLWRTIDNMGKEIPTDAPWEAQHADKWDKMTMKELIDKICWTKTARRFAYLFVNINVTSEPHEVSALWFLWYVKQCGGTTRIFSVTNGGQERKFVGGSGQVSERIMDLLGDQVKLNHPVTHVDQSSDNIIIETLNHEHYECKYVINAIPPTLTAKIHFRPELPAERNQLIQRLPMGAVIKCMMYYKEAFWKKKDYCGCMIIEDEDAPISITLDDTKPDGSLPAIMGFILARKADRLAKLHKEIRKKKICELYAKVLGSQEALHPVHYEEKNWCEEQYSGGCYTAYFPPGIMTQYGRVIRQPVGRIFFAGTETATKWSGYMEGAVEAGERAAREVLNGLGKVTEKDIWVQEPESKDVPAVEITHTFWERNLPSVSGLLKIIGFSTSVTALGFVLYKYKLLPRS
How it was run: as §1

recombinant human VAP-1 = target: T4, recombinant human VAP-1 (Homo sapiens, UniProt Q16853); assay: Activity on recombinant human VAP-1, HRP-coupled Amplex Red hydrogen peroxide assay, benzylamine substrate; conditions: 30 min incubation at 37° C., 1 mM benzylamine, read-out: Inhibitory Activity (IC50, nM) human VAP-1
T4 construct: purchased R&D systems
T4 sequence (Q16853 1-763): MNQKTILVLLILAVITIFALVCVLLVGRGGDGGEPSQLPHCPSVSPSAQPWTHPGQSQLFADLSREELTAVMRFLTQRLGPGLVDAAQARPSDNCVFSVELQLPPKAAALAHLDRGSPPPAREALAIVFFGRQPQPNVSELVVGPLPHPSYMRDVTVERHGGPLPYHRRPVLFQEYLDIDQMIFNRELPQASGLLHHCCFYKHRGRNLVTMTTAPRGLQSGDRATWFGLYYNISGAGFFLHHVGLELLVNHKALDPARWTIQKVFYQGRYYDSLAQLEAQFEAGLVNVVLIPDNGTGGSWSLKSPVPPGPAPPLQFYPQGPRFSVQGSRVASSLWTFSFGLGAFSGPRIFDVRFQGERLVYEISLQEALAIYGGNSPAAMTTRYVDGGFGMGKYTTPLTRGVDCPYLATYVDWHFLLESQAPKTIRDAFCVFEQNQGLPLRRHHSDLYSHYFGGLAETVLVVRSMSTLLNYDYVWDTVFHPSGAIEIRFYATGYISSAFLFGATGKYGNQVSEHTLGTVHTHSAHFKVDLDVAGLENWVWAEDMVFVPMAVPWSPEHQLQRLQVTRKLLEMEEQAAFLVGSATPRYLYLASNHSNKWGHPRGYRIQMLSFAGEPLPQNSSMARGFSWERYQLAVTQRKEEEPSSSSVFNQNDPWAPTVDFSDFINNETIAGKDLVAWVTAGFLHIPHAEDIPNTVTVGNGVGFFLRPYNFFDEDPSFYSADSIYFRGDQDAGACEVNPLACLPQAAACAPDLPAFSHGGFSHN
How it was run: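 Recombinant human VAP-1 in 50 mM sodium phosphate pH 7.4 preincubated with compound for 30 min at 37 °C, then 1 mM benzylamine, 200 uM Amplex Red and 1 U/mL HRP added. Resorufin fluorescence (ex 544/em 590 nm) followed over 1-2 h; % signal-rate decrease vs DMSO control, 8-point 4-parameter fit for IC50.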

IC50 [1] [nM]	IC50 [2] [nM]	IC50 [3] [nM]	IC50 (recombinant human VAP-1) [nM]	Structure (SMILES)
1.8	67	1450	0.6	NC/C(=C\F)Cn1nc2cc(-c3ccc(-c4cnon4)cc3)ccn2c1=O [Example 27, 2-[(2E)-2-(aminomethyl)-3-fluoroprop-2-en-1-yl]-7-[4-(1,2,5-oxadiazol-3-yl)phenyl][1,2,4]triazolo[4,3-a]pyridin-3(2H)-one hydrochloride]
120	6200	> 100000	0.3	CN(C)c1ccc(C#Cc2ccn3c(=O)n(CC(CN)=C(F)F)nc3c2)cn1 [Example 57, 2-[2-(aminomethyl)-3,3-difluoro-allyl]-7-[2-[6-(dimethylamino)-3-pyridyl]ethynyl]-[1,2,4]triazolo[4,3-a]pyridin-3-one trifluoroacetate]
1.9	< 10	> 100000	0.2	NC/C(=C\F)Cn1nc2cc(-c3cccc(-c4cc[nH]n4)c3)ccn2c1=O [Example 26, 2-[(2E)-2-(aminomethyl)-3-fluoroprop-2-en-1-yl]-7-[3-(1H-pyrazol-3-yl)phenyl][1,2,4]triazolo[4,3-a]pyridin-3(2H)-one hydrochloride]
1.1	< 10	14000	3.4	NC/C(=C\F)Cn1nc2ccc(-c3ccc4c(c3)OCO4)cn2c1=O [Example 12, 2-[(2E)-2-(aminomethyl)-3-fluoroprop-2-en-1-yl]-6-(1,3-benzodioxol-5-yl)[1,2,4]triazolo[4,3-a]pyridin-3(2H)-one hydrochloride]
< 100	73	> 100000	2.1	NC/C(=C\F)Cn1nc2ccc(-c3cccc(-c4nc[nH]n4)c3)cn2c1=O [Example 6, 2-[(2E)-2-(aminomethyl)-3-fluoroprop-2-en-1-yl]-6-[3-(1H-1,2,4-triazol-3-yl)phenyl][1,2,4]triazolo[4,3-a]pyridin-3(2H)-one]
< 100	> 10000	> 100000	6.2	NC/C(=C\F)Cn1nc2ccc(-c3ccc(S(=O)(=O)N4CCOCC4)cc3)cn2c1=O [Example 4, 2-[(2E)-2-(aminomethyl)-3-fluoroprop-2-en-1-yl]-6-[4-(morpholin-4-ylsulfonyl)phenyl][1,2,4]triazolo[4,3-a]pyridin-3(2H)-one trifluoroacetate]
< 100	15	> 100000	4.8	NC/C(=C\F)Cn1nc2ccc(-c3ccc4c(c3)OCCO4)cn2c1=O [Example 13, 2-[(2E)-2-(aminomethyl)-3-fluoroprop-2-en-1-yl]-6-(2,3-dihydro-1,4-benzodioxin-6-yl)[1,2,4]triazolo[4,3-a]pyridin-3(2H)-one trifluoroacetate]
< 100	231	> 100000	3.6	CS(=O)(=O)c1ccc(-c2ccc3nn(C/C(=C/F)CN)c(=O)n3c2)cc1 [Example 3, 2-[(2E)-2-(aminomethyl)-3-fluoroprop-2-en-1-yl]-6-[4-(methylsulfonyl)phenyl][1,2,4]triazolo[4,3-a]pyridin-3(2H)-one trifluoroacetate]
< 100	597	> 100000	9.3	CC(=O)Nc1nc2cc(-c3ccc4nn(C/C(=C/F)CN)c(=O)n4c3)ccc2s1 [Example 15, N-[5-[2-[(2E)-2-(aminomethyl)-3-fluoroprop-2-en-1-yl]-3-oxo-2,3-dihydro[1,2,4]triazolo[4,3-a]pyridin-6-yl]-1,3-benzothiazol-2-yl]acetamide trifluoroacetate]
5	290	> 100000	0.5	NC/C(=C\F)Cn1nc2cc(-c3cccc(-c4noc(C5CC5)n4)c3)ccn2c1=O [Example 28, 2-[(2E)-2-(aminomethyl)-3-fluoroprop-2-en-1-yl]-7-[3-(5-cyclopropyl-1,2,4-oxadiazol-3-yl)phenyl][1,2,4]triazolo[4,3-a]pyridin-3(2H)-one hydrochloride]
< 100	64	> 100000	6.6	NC/C(=C\F)Cn1nc2ccc(-c3ccc(N4CCOCC4)nc3)cn2c1=O [Example 10, 2-[(2E)-2-(aminomethyl)-3-fluoroprop-2-en-1-yl]-6-[6-(morpholin-4-yl)pyridin-3-yl][1,2,4]triazolo[4,3-a]pyridin-3(2H)-one trifluoroacetate]
100	800	> 100000	0.1	CS(=O)(=O)c1ccc(-c2ccn3c(=O)n(CC(CN)=C(F)F)nc3c2)cc1 [Example 48, 2-[2-(aminomethyl)-3,3-difluoro-allyl]-7-(4-methylsulfonylphenyl)-[1,2,4]triazolo[4,3-a]pyridin-3-one trifluoroacetate]
< 100	1780	68400	6.2	CC(=O)Nc1ccc(-c2ccc3nn(C/C(=C/F)CN)c(=O)n3c2)cc1 [Example 2, N-[4-[2-[(2E)-2-(aminomethyl)-3-fluoroprop-2-en-1-yl]-3-oxo-2,3-dihydro[1,2,4]triazolo[4,3-a]pyridin-6-yl]phenyl]acetamide trifluoroacetate]
